Data reported in the NIST ThermoML archive (doi:10.1016/j.jct.2010.11.004).

Test: excess molar enthalpy (molar enthalpy of mixing); xn = mol fraction of the nth substance listed
Settings: 298.15 K, 101 kPa, Liquid, ISOTHERMAL TITRATION CALORIMETRY

CCCCCCCCC(C)=O [2-decanone] + CCCCCCCCCCCC
Settings	excess molar enthalpy [kcal/mol]
x1 = 0.0258	0.0318
x1 = 0.0503	0.059
x1 = 0.0736	0.0822
x1 = 0.0958	0.102
x1 = 0.1169	0.119
x1 = 0.1371	0.134
x1 = 0.1612	0.15
x1 = 0.1841	0.164
x1 = 0.2057	0.175
x1 = 0.2262	0.185
x1 = 0.2456	0.193
x1 = 0.2641	0.2
x1 = 0.2847	0.206
x1 = 0.3042	0.211
x1 = 0.3226	0.216
x1 = 0.3401	0.219
x1 = 0.3567	0.222
x1 = 0.3725	0.224
x1 = 0.3897	0.226
x1 = 0.406	0.227
x1 = 0.4215	0.228
x1 = 0.4362	0.228
x1 = 0.4501	0.227
x1 = 0.4634	0.227
x1 = 0.4782	0.226
x1 = 0.4923	0.225
x1 = 0.5055	0.224
x1 = 0.5182	0.222
x1 = 0.5302	0.22
x1 = 0.5416	0.218
x1 = 0.5543	0.216
x1 = 0.5663	0.214
x1 = 0.5777	0.211
x1 = 0.5885	0.209
x1 = 0.5987	0.206
x1 = 0.6049	0.204
x1 = 0.6179	0.201
x1 = 0.6311	0.197
x1 = 0.6448	0.193
x1 = 0.6592	0.188
x1 = 0.6742	0.183
x1 = 0.6899	0.178
x1 = 0.704	0.173
x1 = 0.7187	0.167
x1 = 0.7341	0.161
x1 = 0.7501	0.154
x1 = 0.7668	0.146
x1 = 0.7843	0.137
x1 = 0.8	0.13
x1 = 0.8163	0.121
x1 = 0.8334	0.112
x1 = 0.8511	0.102
x1 = 0.8696	0.0918
x1 = 0.889	0.0798
x1 = 0.9057	0.0686
x1 = 0.9231	0.0571
x1 = 0.9412	0.0442
x1 = 0.96	0.0308
x1 = 0.9796	0.0158

CCCCCCCCC(C)=O [2-decanone] + CCCCCCCCCCCCCC
Settings	excess molar enthalpy [kcal/mol]
x1 = 0.0282	0.0361
x1 = 0.0549	0.0664
x1 = 0.0805	0.092
x1 = 0.1041	0.114
x1 = 0.1268	0.132
x1 = 0.1484	0.148
x1 = 0.1741	0.165
x1 = 0.1983	0.18
x1 = 0.2212	0.192
x1 = 0.2427	0.202
x1 = 0.2632	0.211
x1 = 0.2825	0.218
x1 = 0.3044	0.225
x1 = 0.325	0.23
x1 = 0.3444	0.235
x1 = 0.3628	0.238
x1 = 0.3801	0.241
x1 = 0.3965	0.243
x1 = 0.4145	0.245
x1 = 0.4313	0.245
x1 = 0.4472	0.246
x1 = 0.4623	0.246
x1 = 0.4765	0.245
x1 = 0.4901	0.245
x1 = 0.5029	0.244
x1 = 0.5151	0.242
x1 = 0.5292	0.241
x1 = 0.5425	0.239
x1 = 0.555	0.236
x1 = 0.5669	0.234
x1 = 0.5782	0.232
x1 = 0.5889	0.229
x1 = 0.5991	0.227
x1 = 0.6088	0.224
x1 = 0.6201	0.221
x1 = 0.6308	0.217
x1 = 0.6408	0.214
x1 = 0.6504	0.211
x1 = 0.6594	0.208
x1 = 0.668	0.205
x1 = 0.6762	0.202
x1 = 0.684	0.199
x1 = 0.7031	0.189
x1 = 0.7191	0.182
x1 = 0.7334	0.176
x1 = 0.7483	0.169
x1 = 0.7638	0.162
x1 = 0.7799	0.154
x1 = 0.7968	0.145
x1 = 0.8144	0.135
x1 = 0.8298	0.126
x1 = 0.8458	0.116
x1 = 0.8624	0.106
x1 = 0.8797	0.0939
x1 = 0.8977	0.0815
x1 = 0.9133	0.07
x1 = 0.9294	0.0578
x1 = 0.9461	0.0452
x1 = 0.9634	0.0311
x1 = 0.9814	0.016

CCCCCCCCC(C)=O [2-decanone] + CCCCCCCCCCCCCCCC
Settings	excess molar enthalpy [kcal/mol]
x1 = 0.0372	0.048
x1 = 0.0716	0.087
x1 = 0.1038	0.119
x1 = 0.1337	0.145
x1 = 0.1617	0.167
x1 = 0.188	0.185
x1 = 0.2169	0.203
x1 = 0.2437	0.217
x1 = 0.2688	0.229
x1 = 0.2923	0.239
x1 = 0.3143	0.246
x1 = 0.335	0.253
x1 = 0.3574	0.258
x1 = 0.3784	0.263
x1 = 0.3981	0.266
x1 = 0.4166	0.268
x1 = 0.434	0.27
x1 = 0.4503	0.27
x1 = 0.4686	0.27
x1 = 0.4857	0.27
x1 = 0.5017	0.269
x1 = 0.5168	0.268
x1 = 0.531	0.266
x1 = 0.5443	0.264
x1 = 0.559	0.261
x1 = 0.5728	0.259
x1 = 0.5858	0.256
x1 = 0.598	0.253
x1 = 0.6095	0.25
x1 = 0.6204	0.247
x1 = 0.6324	0.243
x1 = 0.6436	0.239
x1 = 0.6542	0.236
x1 = 0.6641	0.232
x1 = 0.6735	0.228
x1 = 0.6824	0.224
x1 = 0.6964	0.217
x1 = 0.7102	0.21
x1 = 0.7245	0.204
x1 = 0.7393	0.197
x1 = 0.7521	0.191
x1 = 0.7655	0.184
x1 = 0.7793	0.176
x1 = 0.7936	0.168
x1 = 0.8084	0.159
x1 = 0.8238	0.149
x1 = 0.8372	0.14
x1 = 0.8511	0.13
x1 = 0.8654	0.12
x1 = 0.8802	0.109
x1 = 0.8955	0.0966
x1 = 0.9114	0.0837
x1 = 0.9251	0.0722
x1 = 0.9391	0.0598
x1 = 0.9537	0.0461
x1 = 0.9686	0.0318
x1 = 0.9841	0.0163

CCCCCOCCCCC [dipentyl ether] + CCCCCCCCCCCC
Settings	excess molar enthalpy [kcal/mol]
x1 = 0.0242	0.00454
x1 = 0.0473	0.00884
x1 = 0.0693	0.0122
x1 = 0.0903	0.0155
x1 = 0.1104	0.0184
x1 = 0.1296	0.021
x1 = 0.148	0.0234
x1 = 0.1657	0.0256
x1 = 0.1869	0.028
x1 = 0.2071	0.0301
x1 = 0.2262	0.032
x1 = 0.2445	0.0337
x1 = 0.2619	0.0351
x1 = 0.2786	0.0363
x1 = 0.2989	0.0378
x1 = 0.3181	0.039
x1 = 0.3363	0.0399
x1 = 0.3535	0.0409
x1 = 0.3699	0.0416
x1 = 0.3855	0.0423
x1 = 0.4003	0.0425
x1 = 0.4144	0.0428
x1 = 0.431	0.0433
x1 = 0.4466	0.0433
x1 = 0.4614	0.0435
x1 = 0.4754	0.0435
x1 = 0.4887	0.0435
x1 = 0.5014	0.0433
x1 = 0.5129	0.0433
x1 = 0.5241	0.0433
x1 = 0.5358	0.043
x1 = 0.5481	0.043
x1 = 0.5609	0.0428
x1 = 0.5743	0.0425
x1 = 0.5884	0.0423
x1 = 0.6031	0.0418
x1 = 0.6161	0.0413
x1 = 0.6297	0.0409
x1 = 0.644	0.0402
x1 = 0.6589	0.0397
x1 = 0.6745	0.0387
x1 = 0.6908	0.0378
x1 = 0.7056	0.0366
x1 = 0.721	0.0354
x1 = 0.7371	0.0342
x1 = 0.7539	0.0327
x1 = 0.7715	0.0313
x1 = 0.79	0.0294
x1 = 0.8057	0.028
x1 = 0.8221	0.0261
x1 = 0.8391	0.0241
x1 = 0.8569	0.022
x1 = 0.8754	0.0196
x1 = 0.8947	0.0167
x1 = 0.9107	0.0146
x1 = 0.9273	0.0122
x1 = 0.9445	0.00956
x1 = 0.9623	0.00645
x1 = 0.9808	0.00335

CCCCCOCCCCC [dipentyl ether] + CCCCCCCCCCCCCC
Settings	excess molar enthalpy [kcal/mol]
x1 = 0.0299	0.00693
x1 = 0.0581	0.0129
x1 = 0.0847	0.0182
x1 = 0.1099	0.0227
x1 = 0.1337	0.0265
x1 = 0.1562	0.0304
x1 = 0.1776	0.0335
x1 = 0.198	0.0361
x1 = 0.22	0.0392
x1 = 0.2447	0.0416
x1 = 0.266	0.044
x1 = 0.2862	0.0459
x1 = 0.3054	0.0473
x1 = 0.3235	0.0485
x1 = 0.3407	0.0497
x1 = 0.357	0.0507
x1 = 0.3761	0.0519
x1 = 0.394	0.0526
x1 = 0.411	0.0531
x1 = 0.427	0.0535
x1 = 0.4422	0.0538
x1 = 0.4566	0.054
x1 = 0.4702	0.0543
x1 = 0.4832	0.0543
x1 = 0.4927	0.0543
x1 = 0.5031	0.0545
x1 = 0.5139	0.0545
x1 = 0.5253	0.0547
x1 = 0.5371	0.0545
x1 = 0.5494	0.0545
x1 = 0.5604	0.0543
x1 = 0.5718	0.054
x1 = 0.5838	0.0535
x1 = 0.5962	0.0533
x1 = 0.6092	0.0528
x1 = 0.6228	0.0521
x1 = 0.6369	0.0511
x1 = 0.6502	0.0507
x1 = 0.664	0.0497
x1 = 0.6784	0.0488
x1 = 0.6934	0.0476
x1 = 0.7092	0.0464
x1 = 0.7256	0.0449
x1 = 0.7398	0.0435
x1 = 0.7546	0.0421
x1 = 0.7699	0.0404
x1 = 0.7859	0.0382
x1 = 0.8026	0.0361
x1 = 0.8199	0.0337
x1 = 0.8353	0.0313
x1 = 0.8513	0.0289
x1 = 0.8679	0.0263
x1 = 0.8852	0.0234
x1 = 0.9032	0.0203
x1 = 0.918	0.0177
x1 = 0.9333	0.0146
x1 = 0.9491	0.0112
x1 = 0.9655	0.00765
x1 = 0.9824	0.00406

CCCCCOCCCCC [dipentyl ether] + CCCCCCCCCCCCCCCC
Settings	excess molar enthalpy [kcal/mol]
x1 = 0.0349	0.00884
x1 = 0.0674	0.0165
x1 = 0.0979	0.0229
x1 = 0.1264	0.0287
x1 = 0.1531	0.0335
x1 = 0.1783	0.0378
x1 = 0.2066	0.0423
x1 = 0.233	0.0461
x1 = 0.2577	0.0495
x1 = 0.2809	0.0523
x1 = 0.3027	0.0545
x1 = 0.3231	0.0564
x1 = 0.3459	0.0583
x1 = 0.3673	0.0598
x1 = 0.3873	0.0612
x1 = 0.4061	0.0621
x1 = 0.4238	0.0629
x1 = 0.4405	0.0633
x1 = 0.4593	0.0638
x1 = 0.4768	0.0641
x1 = 0.4933	0.0643
x1 = 0.5087	0.0643
x1 = 0.5158	0.0645
x1 = 0.5271	0.0645
x1 = 0.5389	0.0643
x1 = 0.5491	0.0643
x1 = 0.5598	0.0641
x1 = 0.5706	0.0638
x1 = 0.5823	0.0633
x1 = 0.5943	0.0629
x1 = 0.6067	0.0624
x1 = 0.6197	0.0617
x1 = 0.6333	0.0607
x1 = 0.645	0.06
x1 = 0.6527	0.059
x1 = 0.6699	0.0578
x1 = 0.6831	0.0566
x1 = 0.6968	0.0552
x1 = 0.7111	0.0535
x1 = 0.7238	0.0519
x1 = 0.737	0.0504
x1 = 0.7506	0.0485
x1 = 0.7648	0.0464
x1 = 0.7795	0.0442
x1 = 0.7984	0.0416
x1 = 0.8182	0.039
x1 = 0.8315	0.0363
x1 = 0.8512	0.0332
x1 = 0.8718	0.0301
x1 = 0.8935	0.0265
x1 = 0.9162	0.0227
x1 = 0.9292	0.0196
x1 = 0.9425	0.0163
x1 = 0.9563	0.0124
x1 = 0.9704	0.0086
x1 = 0.985	0.00454
